Source: PubChem BioAssay AID504322 (Emory University Molecular Libraries Screening Center, 2011)
The source made the active and inactive calls. How the calls were made is not given here.

Tested on: CHOP reporter cell assay, percent of control
Assay: CHOP reporter inhibitor potency, dose response, cell-based (AID 504322);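 further: CHO cells carrying a CHOP reporter stimulated with tunicamycin to induce ER stress; potency is for inhibition of the stress-induced reporter signal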

Structure (SMILES) | IC50
FC(F)(F)c1cccc(NC(=S)Nc2ccc(Cl)cc2Cl)c1 | 6.1 µM (inactive)
C[C@H](NC(=O)c1[nH]cnc1C(=O)Nc1ccc(Cl)cc1)C(=O)OC(C)(C)C | 5.47 µM (inactive)
O=C(c1ccco1)N1CCN(c2c(-c3ccccc3)c3cc(Cl)ccc3[nH]c2=O)CC1 | 5.65 µM (inactive)
Cc1cc(C)cc(OC2CCCCC2NS(=O)(=O)c2ccccc2)c1 (centres undefined) | > 10 µM (inactive)
CCOC(=O)C1=C(O)/C(=C/c2ccc(CNC(=O)C(=O)Nc3ccc(C)cc3)o2)N=C1C | > 10 µM (inactive)
Cc1ccc(CNCC(O)(c2ccccc2)c2ccc(Cl)cc2)cc1 (centres undefined) | 9.63 µM (inactive)
CC(C)(C)c1ccc(OCCNC(=S)Nc2ccccc2)cc1 | > 10 µM (inactive)
CCCCn1c(=O)[nH]c(=O)c2c1nc(-c1ccc(OCCC)c(OCC)c1)n2C | > 10 µM (inactive)
Cc1ccc(/C=C2\SC(=S)N(CCCC(=O)Nc3ccccn3)C2=O)cc1 | 0.42 µM
CC(C)CC(NC(=O)c1ccc(Cl)cc1)C(=O)OCC(=O)c1ccc2c(c1)NC(=O)CO2 (centres undefined) | 1.6 µM
Cc1cccc(/C=N/Nc2ccc3ccccc3n2)c1 | > 10 µM (inactive)
CC1=C/C(=N\OS(=O)(=O)c2ccccc2)C(C)=CC1=O | 0.9 µM
O=C(Cc1ccccc1)Nc1cccc(N2C(=O)C=CC2=O)c1 | 9.71 µM (inactive)
C=C(C)Cn1c(N2CCC(Cc3ccccc3)CC2)nc2c1c(=O)[nH]c(=O)n2C | 8 µM (inactive)
CC(C)(C)c1ccc(OCC(=O)N/N=C/C2CC=CCC2)cc1 (centres undefined) | 7.48 µM (inactive)
Cc1cc(C)n(-c2nc(N(c3ccccc3)c3ccccc3)nc(-n3nc(C)cc3C)n2)n1 | 9.34 µM (inactive)
CCSc1nc2ccccc2n1C(=O)/C=C\c1ccc(OC)c(OC)c1 | 4.06 µM
CN1C(=O)/C(=C/c2cc(N=Nc3ccccc3)ccc2O)SC1=S | 4.49 µM (inactive)
COc1ccccc1C(=O)NC(=Nc1nc2ccccc2o1)NC(=O)c1ccccc1OC | 9.43 µM (inactive)
O=C(Nc1ccc(Oc2c(F)c(F)c(F)c(F)c2F)cc1)OC1CCN2Cc3ccccc3N=C12 (centres undefined) | 8.37 µM (inactive)
CCOc1ccc(-c2n[nH]c(C)c2Oc2ccc(OC)cc2)c(O)c1 | > 10 µM (inactive)
C#CC(=O)N(c1ccc(OC)c(OC)c1)C(C(=O)NC1CCCC1)c1cccs1 (centres undefined) | 5.28 µM (inactive)
C/C(=N\N=C1\NC(=O)C(CC(=O)Nc2ccc(C)c(Cl)c2)S1)C(C)(C)C (centres undefined) | 9.43 µM (inactive)
Cc1cc(Nc2ccc(Cl)cc2)nc(NCc2ccccc2)n1 | > 10 µM (inactive)
O=C(Nc1ccccc1Cl)/C(Cl)=C(\Cl)S(=O)c1ccccc1 (centres undefined) | 2.4 µM

Structure (SMILES) | IC50
O=S1(=O)C=C(Sc2nc3ccccc3s2)c2ccccc21 | 1.26 µM
O=c1oc2ccccc2c(Cl)c1CN1CCCCC1 | 9.26 µM (inactive)
Cn1ncc2c(O/N=C(\N)c3ccc(C(C)(C)C)cc3)ncnc21 | 4.27 µM
COc1ccc(C(=O)/C=C/C(=O)N(CC(=O)NC2CCCCC2)Cc2cccs2)c(O)c1 | 9.94 µM (inactive)
COc1cc(/C=C(/C#N)c2nc3ccccc3[nH]2)ccc1OCC(=O)Nc1ccccc1C(C)C | 4.54 µM
Cc1nn(C(C)(C)C)c(C)c1/C=N/OC(=O)Nc1ccc(Cl)cc1 | < 0.16 µM
C/C(=N\OCc1cccc(C(=O)O)c1)c1ccc(Cl)cc1 | 6 µM (inactive)
Cc1cccc(NC(=O)/C(C#N)=C/c2cn(CC(=O)NCc3ccco3)c3ccccc23)c1C | > 10 µM (inactive)
C(=N\Nc1ncnc2sc3c(c12)CCC3)/c1cccs1 | 8.89 µM (inactive)
Oc1ccc(/C=N/Nc2nc(N3CCCCCC3)nc(N3CCCCCC3)n2)c(O)c1 | 9.82 µM (inactive)
Cc1cc(C(=O)CCl)c(C)n1-c1cccc(S(=O)(=O)N2CCOCC2)c1 | > 10 µM (inactive)
O=C(Nc1ccc(OC(F)F)cc1)Nc1cccc(C(F)(F)F)c1 | 8.9 µM (inactive)
O=C(COc1ccc(Cl)cc1Cl)NCCC1=CCCCC1 | 7.77 µM (inactive)
COc1ccc(CC2(CO)CCN(CC3=Cc4cc(Cl)ccc4OC3)CC2)cc1 | 0.87 µM (inactive)
CCOC(=O)C(NC(=O)Nc1cccc(C)n1)(OCC(F)(F)F)C(F)(F)F (centres undefined) | > 10 µM (inactive)
COCCn1cnc2c(c1=O)c1nc3ccccc3nc1n2/N=C/c1cccc(OC)c1 | 8.74 µM (inactive)
CCOc1ccc(N=Cc2c(O)n(C(C)(C)C)c(=O)[nH]c2=O)cc1 | 9.2 µM (inactive)
Cc1ccc(NC2=C/C(=N\S(=O)(=O)c3cccs3)c3ccccc3C2=O)c(C)c1 | 4.52 µM
Cc1ccc(C2=NN(C(=O)c3cccs3)C(c3ccccc3O)C2)cc1 (centres undefined) | 9.38 µM (inactive)
O=C(Nc1nccs1)c1cc2c(s1)CCCCC2 | > 10 µM (inactive)
COc1ccc([C@H]2Oc3cc(O)cc(O)c3C(=O)C2[C@@H]2C(=O)c3c(O)cc(O)cc3O[C@@H]2c2ccc(OC)cc2)cc1 (some centres undefined) | > 10 µM (inactive)
CCN1C=CC(=C2C(=O)c3ccccc3C2=O)C=C1 | 1.11 µM (inactive)
C=CCSc1n[nH]c(-c2ccc(OCCCC)cc2)n1 | > 10 µM (inactive)
CCc1ccc(C(=O)/C=C/c2ccc([N+](=O)[O-])o2)cc1 | 9.75 µM (inactive)
COc1ccc(NC(=O)/C(Cl)=C(/Cl)S(=O)Cc2ccc(Cl)cc2)cn1 (centres undefined) | 1.99 µM

Structure (SMILES) | IC50
Cc1ccc(S(=O)(=O)Nc2ccc(NC(=O)Nc3cccc(C(F)(F)F)c3)cc2)cc1 | 9.48 µM (inactive)
Cc1cc(C)c2c(c1)/C(=N/NS(=O)(=O)c1ccc(Br)cc1)CCC2 | 9.49 µM (inactive)
CC(C)(C)C1C/C(=C/c2ccccn2)C(=O)/C(=C/c2ccccn2)C1 (centres undefined) | 0.3 µM
Cc1ccc(NC(=O)c2nc[nH]c2C(=O)N[C@@H](C)C(=O)OC(C)(C)C)cc1 | 5.12 µM (inactive)
O=C(Nc1cccc(-c2nc3ncccc3o2)c1)c1sc2ccccc2c1Cl | 2.47 µM
O=C1C(=O)c2ccc(-c3ccccc3)cc2-c2ccccc21 | 3.36 µM
CCOC(=O)/C(=C\c1ccc(OC(F)F)cc1)C1=Nn2c(nnc2-c2ccc(Cl)cc2)SC1 | 3.2 µM (inactive)
Cc1ccc2nc(Nc3ccc4[nH]c(=O)[nH]c4c3)c(-n3nc(C)cc3C)nc2c1 | 6.47 µM
Cc1cc(C)c(S(=O)(=O)c2ccccc2)c(OC(=O)c2cc(F)c(F)cc2Cl)n1 | 8.2 µM (inactive)
CCCCCCCCCCCCCCCC[n+]1ccc(/C=N/O)cc1 | 3.1 µM
Fc1cccc(-c2nnn3c2nc(Cl)c2ccccc23)c1 | 7.37 µM (inactive)
CCOC(=O)c1cc([N+](=O)[O-])c([N+](=O)[O-])cc1NC(C)=O | 4.24 µM
Cc1ccc(NC(=S)NC(NC(=O)Cc2cccc3ccccc23)C(Cl)(Cl)Cl)cc1 (centres undefined) | > 10 µM (inactive)
Cc1ccc(-c2nc(-c3ccccn3)no2)cc1 | 4.47 µM
Nc1ccc(N2CCCCCC2)cc1 | > 10 µM (inactive)
CCOC(=O)c1c(-n2c(C)cc(C=C3C(=O)NC(=S)NC3=O)c2C)sc2c1CCCC2 | 5.85 µM (inactive)
CCN1/C(=C/C=C/C=C/c2sc3ccccc3[n+]2CC)Sc2ccccc21 | 0.87 µM (inactive)
C=C(C)COc1ccc(-c2n[nH]c(C)c2-c2ccccc2OC)c(O)c1 | > 10 µM (inactive)
C=CCSc1nc2ccccc2n1C(=O)/C=C/c1cc(OC)c(OC)c(OC)c1 | 4.16 µM
CC(C)(C)c1ccc(Oc2ccc(N)cc2)cc1 | < 0.16 µM (inactive)
Cc1ccc(C(=O)Nc2cnc3ccccc3c2)cc1 | 8.6 µM (inactive)
CCOC(=O)c1cnc(-n2nc(C)cc2C)nc1Nc1ccc(O)cc1 | 1.51 µM
O=Cc1s/c(=N\S(=O)(=O)c2ccccc2)n(CCCCl)c1Cl | 5.89 µM (inactive)
O=C(Nc1ccc([N+](=O)[O-])cc1)Nc1ccc(OC(F)F)c(Cl)c1 | 6.4 µM (inactive)
CC(C)c1ccc2c(c1)C1(NN=C(c3ccccc3)S1)C(=O)N2 (centres undefined) | > 10 µM (inactive)

Structure (SMILES) | IC50
CC1=C(C)/C(=N\OS(=O)(=O)c2ccc(C)cc2)C=CC1=O | 3.68 µM (inactive)
CCOc1ccc(-c2cc(CCCC(=O)NCc3ccc(C)cc3)no2)cc1 | 5.91 µM (inactive)
O=C(Nc1cccc(Cl)c1Cl)c1cc(S(=O)(=O)NCCc2ccccc2)ccc1F | 9.57 µM (inactive)
CCNc1nc(Oc2c(Cl)cccc2Cl)cc(C(F)(F)F)n1 | 2.74 µM
COc1ccccc1-c1cc(C(F)(F)F)nc(S(=O)(=O)CCCC(=O)NC(C)C)n1 | 9.35 µM (inactive)
CS(=O)(=O)c1ncc(Cl)c(C(=O)Nc2ccc(N3CCOCC3)cc2)n1 | > 10 µM (inactive)
CC(C)CCn1c(=O)c(C(=O)N/N=C/c2cccc(F)c2)c(O)c2ccccc21 | 2.97 µM
COc1cc(/C=C2\CC/C(=C\c3cc(OC)c(O)c(OC)c3)C2=O)cc(OC)c1O | 1.84 µM (inactive)
C#CC(=O)N(c1cccc(OC)c1)C(C(=O)NC1CCCC1)c1cccs1 (centres undefined) | 4.53 µM
CCCC(=O)OCCNc1cc(Sc2nc3ccccc3[nH]2)c2nonc2c1[N+](=O)[O-] | 5.35 µM (inactive)
O=[N+]([O-])c1ccc(-c2nc(C(Cl)Cl)c3ccccc3n2)cc1 | 0.19 µM
CCCCCCn1c(CN2CCCC(C)C2)nc2c1c(=O)n(C)c(=O)n2C (centres undefined) | > 10 µM (inactive)
CCNC(=O)c1c(NC(=O)c2cc(-c3cc(C)ccc3O)n[nH]2)sc2c1CCCC2 | 9.58 µM (inactive)
O=C(CCl)N(Cc1cccc([N+](=O)[O-])c1)c1cccc(Cl)c1 | 9.39 µM (inactive)
CC(C)(C)c1ccc(C(O)CCCN2CCC(C(O)(c3ccccc3)c3ccccc3)CC2)cc1 (centres undefined) | 4.12 µM (inactive)
Cc1[nH]n(-c2ccccc2)c(=O)c1/C=C1/C=c2ccccc2=N1 | 9.74 µM (inactive)
O=Nc1ccc(O)c2ncccc12 | 8.83 µM (inactive)
CCOc1cccc(CNc2ccc(O)cc2)c1OCc1ccc(Cl)cc1Cl | 4.58 µM
CCCCCCn1c(SCCC)nc2c1c(=O)[nH]c(=O)n2C | 5.41 µM
CCCCCCCCCCCCCCCCn1cc[n+](C)c1 | 0.86 µM (inactive)
CCOC(=O)c1c(/N=C/c2c(O)n(-c3cccc(C)c3)c(=O)[nH]c2=O)sc2c1CCCC2 | 2.39 µM
CC(C)(C)C1CCC(C(=O)OCC(=O)c2ccc[nH]2)CC1 (centres undefined) | 6.04 µM (inactive)
Cc1ccc(-c2nnc(-c3ccc(NC(=O)Cc4cccs4)cc3)o2)cc1 | 8.41 µM (inactive)
Cc1ccccc1OCc1n(CC(=O)OC2CC(C)CCC2C(C)C)c2ccccc2[n+]1C (centres undefined) | > 10 µM (inactive)
